This is an account of results in patent publication US6337333B1, “Method of treating autoimmune disease with fludarabine-5′-monophosphate” (priority 1992, dated 2002).

What all share (format): cell-based, human
In assay [1] the test system is CD20, CD20/CD5 and CD3/CD5 lymphocyte subsets. Briefly: Flowcytometric phenotype of lymphocyte subsets in SAC + rIL-2 cultures. Particulars: for CD20/CD5 subpopulations: end of 5 and 10 day culture periods, drug dose dependent, data not shown; for effect on relative percent of CD20, CD20/CD5 and CD3/CD5 staining cells: 5 day SAC + rIL-2 culture, FIG. 4; for CD20, % Viable (% Total) / CD20/5, % Viable (% Total): 5 day culture, 1.0 μg/ml FLP + SAC/rIL-2 (50 μ/ml). The method, then: Approximately 5×10^5−1×10^6 PBMC, enriched T, or B lymphocytes were cultured in 1 ml of S-10 in Falcon 10×75 mm capped polypropylene tissue culture tubes (Falcon #2063) for the appropriate times at 37° C. in a humidified 5% CO2/air atmosphere. Recombinant IL-2 (rIL-2) was used at 50 U/ml and SAC was at a final concentration of {fraction (1/60,000)}. The mitogens phytohemagglutinin (PHA-P) (Pharmacia, #27-3707-01, Uppsala, Sweden) and pokeweed mitogen (PWM, Pharmacia, #27-3702-01) were used at 5 μg/ml and 10 μg/ml, respectively.
Cells were washed once in citrate buffered saline (C-BSS) and 10^5-10^6 cells per sample were aliquoted for staining. For direct immunofluorescence, […] of either FITC- or PC-conjugated CD-specific mouse monoclonal antibody (Becton Dickinson, San Jose, Calif.) were added to cells in […] of C-BSS and incubated at RT for 30 min. The samples were then washed once in 2 ml C-BSS, resuspended in 0.5 ml C-BSS and acquired on a B/D FACScan Flowcytometer using either Simulset or Lysis II software. During analysis of data files, lymphocytes were discriminated from monocytes and dead cells on the basis of their forward light scatter (FCS) properties and high positivity with anti-CD45 and anti-CD14 (leucogate).
In FIG. 4, at the end of the culture period, the cells were washed, fixed with 1% formalin/PBS, and stained with mouse monoclonals anti-CD20 (PE), anti-CD3 (PE), and anti-CD5 (FITC). The stained samples were analyzed on a FACScan flowcytometer using LYSYS II software. Viable cells were gated and results are expressed as percent of total viable events acquired.
Experiments were conducted that sampled supernatants and cells at 5 and 10 days culture with various amounts of drug.

For another assay, the system named is IgM production. Put plainly: Cumulative IgM production in SAC + rIL-2 cultures, EIA. Particulars: for accumulation of IgM: 5 and 10 day SAC rIL-2 cultures, preliminary studies. Here is the method: In FIG. 5, peripheral blood mononuclear cells (PBMC) enriched for B lymphocytes (BC89; 60% CD19, 59% CD20, 8% CD3) were continuously cultured at 5×10^5/ml and stimulated with Staphylococcus aureus Cowan I (SAC) plus interleukin 2 (IL-2) (50 U/ml) in the presence of 1.0 μg/ml of FLP. Recombinant IL-6 was added to 50 U/ml. After the culture period, the supernatants were harvested and assayed for huIgM by EIA. Results shown are from 1 representative experiment of 5 different experiments conducted with 5 different sources of leukocyte preparations. […]
(§1) In FIG. 7, peripheral blood mononuclear cells (PBMC) enriched for B lymphocytes (BC92; 35% CD19, 33% CD20, 35% CD3) were continuously cultured for 5 days in either medium alone, Staphylococcus aureus Cowan I (SAC) plus interleukin 2 (IL-2) (50 U/ml), or SAC plus IL-2 in the presence of various concentrations of FLP or 2-chlorodeoxyadenosine (2CDA). After 5 days of culture, the supernatants were harvested and serial dilutions of supernatant assayed for huIgM and huIgG by EIA. The presence of IgM rheumatoid factor (IgM-RF) was determined by EIA using the Vectastain Biotin-Streptavidin amplification system. Results are reported as O.D. 405 nm units. […] The results shown are from 1 representative experiment of 4 separate experiments conducted with 4 different sources of packed leukocytes.
(§2) In FIG. 8, peripheral blood mononuclear cells (PBMC) enriched for B lymphocytes (BC92, 35% CD19, 33% CD20, 35% CD3) were continuously cultured for 10 days in either medium alone, Staphylococcus aureus Cowan I (SAC) plus interleukin 2 (IL-2) (50 U/ml), or SAC plus IL-2 in the presence of various concentrations of FLP or 2CDA. At the end of the culture period, the supernatants were harvested and serial dilutions assayed for huIgM, huIgG, and IgM-RF by EIA. The cells were phenotyped by flowcytometry. Results are reported as O.D. 405 nm units. […] The results shown are from 1 experiment representative of 3 separate experiments conducted with 3 different sources of packed leukocytes.
(§3) In FIG. 9, peripheral blood mononuclear cells (PBMC) (BC93; 22% CD19, 20% CD20, 78% CD3) were continuously cultured for 5 days in either medium alone, Staphylococcus aureus Cowan I (SAC) plus interleukin 2 (IL-2) (50 U/ml) or 20% T cell conditioned medium (Tcm) in the presence of various concentrations of FLP. At the end of the 5 day culture period, the supernatants were harvested and serial dilutions assayed for huIgM, huIgG, and IgM-RF by EIA. The results are reported as O.D. 405 nm units. […] The results shown are from one representative experiment.
Immulon-2 (Dynatek Laboratories, #011-010-3450, Chantilly, Va.) flat-bottom 96 well microtiter plates were coated with 100 μl/well of a 2 μg/ml solution of goat F(ab′)2 anti-HuIgM (μ chain, CALTAG #H15100, So. San Francisco, Calif.) or goat F(ab′)2 anti-HuIgG (Fc sp., CALTAG #H10100) in 0.1 M sodium carbonate buffer, pH 9.6 overnight at 4° C. Uncoated wells were incubated with the carbonate buffer alone. The plates were rinsed and then incubated with 100 μl/well of 0.1% BSA/PBS for 1 hr at RT.

The subject of a further assay is IgM-RF production. Briefly: Cumulative IgM-RF production in SAC + rIL-2 cultures, EIA. Particulars: for effect on measurable IgM-RF: FIG. 7C; for accumulation of IgM-RF: 5 and 10 day SAC rIL-2 cultures, preliminary studies.
Excerpt: as §1, §2, §3
The procedure to determine amounts of IgM-RF in culture supernatants was a modification of the methodology described above. Briefly, plates were coated with 100 μl/well of a 2.4 μg/ml solution of human IgG Fc fragments (Jackson ImmunoResearch, Chrompure #009-000-008) in 0.1 M sodium carbonate, pH 9.6 overnight at 4° C. The wells were blocked with 0.1% BSA/PBS for 1 hr at RT, and then serial dilutions of culture supernatant were cultured at 100 μl/well for 18-48 hrs at RT. A Vectastain Human IgM ABC-AP kit (Vector Laboratories, #AK-5009, Burlingame, Calif.) was used to develop the plates. […] Results are reported as O.D. units at 405 nm.

The mark [2] stands for this setting: one microgram per ml, 5 days, FIG. 7A.

In the case of `Nc1nc(Cl)nc2c1ncn2[C@H]1C[C@H](O)[C@@H](CO)O1` [2CDA, 2-chlorodeoxyadenosine], the CD20/CD5 subpopulations result in assay [1] is “decreased”. Besides, in the assay with IgM production, the “accumulation of IgM” value is given as “dose-related decrease”. Also, the “effect on IgM production” value with IgM production (setting [2]) is “block”. In the assay with IgM production (one microgram per ml, 10 days), the “effect on IgM accumulation” value is given as “block the accumulation”. For the same molecule, the “effect on measurable IgM-RF” value with IgM-RF production (1 μg/ml, 5 days) is listed as “less effect”. The “effect on IgM-RF accumulation compared with FLP” value in the assay on IgM-RF production (1 μg/ml, 10 days) is listed as “characteristics similar to FLP”. The “accumulation of IgM-RF” value with IgM-RF production is “dose-related decrease”.
`Nc1nc(F)nc2c1ncn2[C@@H]1O[C@H](COP(=O)(O)O)[C@@H](O)[C@@H]1O` [FLP, fludarabine-5′-monophosphate]: the “effect on relative percent of CD20, CD20/CD5 and CD3/CD5 staining cells” value in assay [1] (0.1 μg/ml) was “minimal effect”; in assay [1] (0.5 μg to 5.0 μg/ml), “dose-dependent decrease”. Also, the figures for the “CD20, % Viable (% Total)” value in assay [1] (IL-6 +) and in assay [1] (IL-6 −) were 60% and 64%, respectively. Besides, the “CD20/5, % Viable (% Total)” value in assay [1] (IL-6 +) is on record as 1.9%; in assay [1] (IL-6 −) it was 1.8%. Also, the CD20/CD5 subpopulations entry in assay [1] is “decreased”. Also, the “effect on IgM accumulation” value in the assay with IgM production (0.1 μg/ml, 10 days, FIG. 8A) is recorded as “minimal effect”; in the assay on IgM production (5 μg/ml, 5 days, FIG. 7A), “block any measurable IgM accumulation”; with IgM production (0.1 and 0.5 μg/ml, PBMC, 5 days, cultures containing rIL-2 or 20% T cell conditioned medium, FIG. 9A), “reduce”. Also, the “reduction of IgM accumulation” value is given as 80% with IgM production (1 μg, 10 days, FIG. 8A) and 98% in the assay on IgM production (5 μg, 10 days, FIG. 8A). In the assay on IgM production (1.0 μg/ml, 5 day cultures, FIG. 5), the “detectable IgM in supernatants” value is “background levels”. In the assay with IgM production, the “accumulation of IgM” value is recorded as “dose-related decrease”. The “effect on IgM production” value is “minimal effect” in the assay with IgM production (one hundred nanograms per ml, 5 days, FIG. 7A) and “intermediate effect” in the assay with IgM production (setting [2]). Besides, the IgM-RF production in the assay on IgM-RF production (0.1 μg/ml, 10 days, FIG. 8C) is on record as 50 % of control. Moreover, the “effect on measurable IgM-RF” value was “reduce the measurable IgM-RF” in the assay with IgM-RF production (1 μg/ml, 5 days) and “reduce the measurable IgM-RF” with IgM-RF production (5 μg/ml, 5 days). For the same molecule, the “level of measurable IgM-RF” value in the assay with IgM-RF production (5 μg, 10 days, FIG. 8C) is “below the medium control levels”. The “effect on IgM-RF accumulation” value in the assay on IgM-RF production (0.1 and 0.5 μg/ml, PBMC, 5 days, cultures containing rIL-2 or 20% T cell conditioned medium, FIG. 9C) is recorded as “reduce”. In addition, the “accumulation of IgM-RF” value with IgM-RF production is listed as “dose-related decrease”.
